Read-outs that look alike come from different tables or passages of the source.

We go through three compounds from article PMC11641365, “Evaluation of In Vitro Biological Activity of Flavanone/Chromanone Derivatives: Molecular Analysis of Anticancer Mechanisms in Colorectal Cancer” (International Journal of Molecular Sciences, 2024).

Data set [1] concerns Caco-2. The data set can be described thus: MTT cell viability assay. To be noted: 24 h incubation with compound, mean ± SD of three experiments, read-out: Cytotoxic effect, IC50. The format is cell-based, human. The protocol: The cytotoxic activity of the 3-benzylideneflavanones, 3-benzylidenechromanones derivatives (compounds 1, 2, 3, 4, 5) and 5′-(3-methoxyphenyl)-2-phenyl-4′,5′-dihydro-4H-spiro[chromano-3,3′-pirazol]-4-one (compound 3a) was evaluated using the MTT assay (4,5-dimethylthiazol-2-yl)-2,5-diphenyltetrazoliumbromide), a colorimetric method that quantifies cell viability.
(§1) Cell viability was determined using the metabolic microplate spectrophotometric assay with Methylthiazolyl diphenyltetrazolium bromide (MTT) (Sigma-Aldrich; St. Louis, MO, USA). The MTT method belongs to metabolic tests for determining cell viability and consists of measuring the absorbance of a violet solution of formazan, a product of the reduction of a water-soluble yellow MTT by oxidoreductive enzymes (mainly mitochondrial succinate dehydrogenase) of living cells. The amount of the reaction product (water-insoluble formazan crystals) is proportional to the number of living and metabolically active cells in the sample. In the case of damaged or dead cells, formazan is formed in smaller amounts, or it is not formed.
(§2) The appropriate number of cells for a given cell line (6–8 × 10^3 cells/mL) were seeded onto colorless, sterile 96-well microplates (Nunc, Roskilde, Denmark) in the number appropriate for a given cell line. After 24 h of culture, various concentrations of the studied compounds (10^−7–10^−5 M) freshly prepared in DMSO (final concentration DMS < 0.1%) and diluted with complete culture medium were added and incubated in a CO2 incubator for 24 h. After this time, the medium was removed; the cell monolayer was washed twice with sterile PBS solution; and fresh culture medium was added to the microplate wells. After 48 h of cell culture, the MTT test was performed. A volume of 50 μL of tetrazolium salt solution (final concentration 0.05 mg/mL) was added to each microplate well. The microplate was placed for 3–4 h (depending on the cell line) in a CO2 incubator. After incubation, 100 μL of DMSO was added to the wells of the microplate to dissolve the purple formazan crystals formed in the living cell environment. The absorbance of the formazan solution, after gentle mixing, was read at a wavelength of λ = 580 nm and a reference wavelength of λ = 720 nm (Biotek Power Wave HT, Biotek Instruments, Winooski, VT, USA). The percentage of living cells was calculated by comparing the absorbance value of the tested samples with the absorbance value of the control (cells not treated with compounds). The absorbance of the control was taken as 100%.
In general terms: Formazan colour is commonly taken as a measure of viable cells.

Data set [2] relates to human colon cancer cell lines: HCT 116, SW620, LoVo, Caco-2, and HT-29. The data set can be described thus: MTT cell viability assay, statements across the panel. The format is cell-based. To be noted: range over the cancer cell lines, read-out: IC50 range against colon cancer cell lines. The protocol:
The cytotoxic activity of the 3-benzylideneflavanones, 3-benzylidenechromanones derivatives (compounds 1, 2, 3, 4, 5) and 5′-(3-methoxyphenyl)-2-phenyl-4′,5′-dihydro-4H-spiro[chromano-3,3′-pirazol]-4-one (compound 3a) was evaluated using the MTT assay (4,5-dimethylthiazol-2-yl)-2,5-diphenyltetrazoliumbromide), a colorimetric method that quantifies cell viability. […] These IC50 values were subsequently used for all experiments investigating the anticancer activity of the flavanone/chromanone derivatives in this study.
as §1
as §2, with “100%. […] Moreover, cisplatin (Sigma-Aldrich, St. Louis, MO, USA) was used as a reference compound, and identical incubation conditions were used as described above.” for “100%.”

The test system of data set [3] is LoVo. Kind of data set: Hydrogen peroxide level, H2DCFDA probe. The format is cell-based, human. The conditions noted are these: compound at IC50, 24 h; for Increase in H2O2 levels: vs control. How it is done: Cellular H2O2 levels were assessed using 2′,7′-dichlorodihydrofluorescein diacetate (H2DCFDA, Sigma-Aldrich, St. Louis, MO, USA), a well-established fluorogenic probe for intracellular hydrogen peroxide detection. H2DCFDA readily diffuses across the cell membrane and is subsequently hydrolyzed by intracellular esterases to non-fluorescent H2DCF. Oxidation of H2DCF by ROS generates highly fluorescent 2′,7′-dichlorofluorescein (DCF), which accumulates in the cytosol. […] The fluorescence intensity of DCF is directly proportional to the concentration of ROS within the cell.
Cells were seeded in black 96-well fluorometric microplates at a density of 10 × 10^3 cells/mL. […] Following compound incubation, the medium was removed, and the cell monolayers were washed twice with HBSS (140 mM NaCl, 5 mM KCl, 0.8 mM MgCl2, 1.8 mM CaCl2, 1 mM Na2HPO4, 10 mM HEPES, and 1% glucose). A volume of 50 µL of H2DCFDA solution in HBSS (final concentration 5 μM) was added to each well, and the cells were incubated for 30 min in the dark at 37 °C. After incubation with the H2DCFDA, fluorescence measurements were conducted using a Perkin-Elmer LS-5B spectrofluorometer (MA, USA) at the following excitation and fluorescence emission wavelengths: λex = 498 nm/λem = 522 nm. The fluorescence intensity of control cells was arbitrarily assigned a value of 100%. The results were expressed as percentages of control, calculated by comparing the fluorescence intensity ratio of the test samples to controls (100%). The fluorescence of samples was denoted as Δf in relation to the control.

For the compound `COc1cccc(/C=C2/C(=O)c3ccccc3OC2c2ccccc2)c1` (stereo not drawn) [Compound 3], the IC50 (usually the point on the concentration scale where inhibition reaches its midpoint) is 69.9 ± 5.1 µM in data set [1]; approximately 70 µM in data set [1] (Homo sapiens, Caco-2, 24 h); 8 to 30 µM in data set [2] (Homo sapiens). The “Increase in H2O2 levels” value in data set [3] is 10%.

Take `O=C1/C(=C/c2ccccc2)C(c2ccccc2)Oc2ccccc21` (stereo not drawn) [Compound 5]: the IC50 in data set [1] is 72.1 ± 1.7 µM; in data set [1] (Homo sapiens, Caco-2, 24 h), approximately 70 µM; in data set [2] (Homo sapiens), 8 to 30 µM. In addition, the “Effect on H2O2 levels” value in data set [3] is listed as “did not affect H2O2 levels”.

As to `O=C1/C(=C/c2ccccc2)COc2ccccc21` [Compound 1], the 50% inhibitory concentration (IC50) was 10.2 ± 1.8 µM in data set [1] (Homo sapiens, Caco-2, 24 h); 8 to 30 µM in data set [2] (Homo sapiens); 8 to 20 µM in data set [2]. In addition, in data set [3], the “Increase in H2O2 levels” value is on record as 10%.
